From patent US9302988B2, “Fluoromethyl-substituted pyrrole carboxamides” (GRÜNENTHAL GMBH, priority 2012, dated 2016)

Target: T1, Human CaV2.2 channels (Homo sapiens, UniProt Q00975)
T1 construct: expressed in transfected cells
Assay: Fluorescent assay for CaV2.2 channels using potassium depolarization to induce channel opening (FLIPR, Fluo-4)
Type: cell-based
Conditions: 3 μM test compound, 30 mM KCl, HEK293 cells stably expressing human CaV2.2; read-out: %-Inhib (CaV2.2) @3 μM @30 mM KCl
Method in brief: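 HEK293 cells stably co-expressing CaV2.2 with α2δ and β subunits plus Kir2.3 were Fluo-4 loaded, then preincubated 15 min at 25 °C with compound in 30 mM KCl buffer, pH 7.4. Depolarization was by adding buffer containing 210 mM KCl. Inhibition was taken from baseline-normalized peak fluorescence amplitude (ex 480/em 535 nm).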

T1 sequence (Q00975 whole entry): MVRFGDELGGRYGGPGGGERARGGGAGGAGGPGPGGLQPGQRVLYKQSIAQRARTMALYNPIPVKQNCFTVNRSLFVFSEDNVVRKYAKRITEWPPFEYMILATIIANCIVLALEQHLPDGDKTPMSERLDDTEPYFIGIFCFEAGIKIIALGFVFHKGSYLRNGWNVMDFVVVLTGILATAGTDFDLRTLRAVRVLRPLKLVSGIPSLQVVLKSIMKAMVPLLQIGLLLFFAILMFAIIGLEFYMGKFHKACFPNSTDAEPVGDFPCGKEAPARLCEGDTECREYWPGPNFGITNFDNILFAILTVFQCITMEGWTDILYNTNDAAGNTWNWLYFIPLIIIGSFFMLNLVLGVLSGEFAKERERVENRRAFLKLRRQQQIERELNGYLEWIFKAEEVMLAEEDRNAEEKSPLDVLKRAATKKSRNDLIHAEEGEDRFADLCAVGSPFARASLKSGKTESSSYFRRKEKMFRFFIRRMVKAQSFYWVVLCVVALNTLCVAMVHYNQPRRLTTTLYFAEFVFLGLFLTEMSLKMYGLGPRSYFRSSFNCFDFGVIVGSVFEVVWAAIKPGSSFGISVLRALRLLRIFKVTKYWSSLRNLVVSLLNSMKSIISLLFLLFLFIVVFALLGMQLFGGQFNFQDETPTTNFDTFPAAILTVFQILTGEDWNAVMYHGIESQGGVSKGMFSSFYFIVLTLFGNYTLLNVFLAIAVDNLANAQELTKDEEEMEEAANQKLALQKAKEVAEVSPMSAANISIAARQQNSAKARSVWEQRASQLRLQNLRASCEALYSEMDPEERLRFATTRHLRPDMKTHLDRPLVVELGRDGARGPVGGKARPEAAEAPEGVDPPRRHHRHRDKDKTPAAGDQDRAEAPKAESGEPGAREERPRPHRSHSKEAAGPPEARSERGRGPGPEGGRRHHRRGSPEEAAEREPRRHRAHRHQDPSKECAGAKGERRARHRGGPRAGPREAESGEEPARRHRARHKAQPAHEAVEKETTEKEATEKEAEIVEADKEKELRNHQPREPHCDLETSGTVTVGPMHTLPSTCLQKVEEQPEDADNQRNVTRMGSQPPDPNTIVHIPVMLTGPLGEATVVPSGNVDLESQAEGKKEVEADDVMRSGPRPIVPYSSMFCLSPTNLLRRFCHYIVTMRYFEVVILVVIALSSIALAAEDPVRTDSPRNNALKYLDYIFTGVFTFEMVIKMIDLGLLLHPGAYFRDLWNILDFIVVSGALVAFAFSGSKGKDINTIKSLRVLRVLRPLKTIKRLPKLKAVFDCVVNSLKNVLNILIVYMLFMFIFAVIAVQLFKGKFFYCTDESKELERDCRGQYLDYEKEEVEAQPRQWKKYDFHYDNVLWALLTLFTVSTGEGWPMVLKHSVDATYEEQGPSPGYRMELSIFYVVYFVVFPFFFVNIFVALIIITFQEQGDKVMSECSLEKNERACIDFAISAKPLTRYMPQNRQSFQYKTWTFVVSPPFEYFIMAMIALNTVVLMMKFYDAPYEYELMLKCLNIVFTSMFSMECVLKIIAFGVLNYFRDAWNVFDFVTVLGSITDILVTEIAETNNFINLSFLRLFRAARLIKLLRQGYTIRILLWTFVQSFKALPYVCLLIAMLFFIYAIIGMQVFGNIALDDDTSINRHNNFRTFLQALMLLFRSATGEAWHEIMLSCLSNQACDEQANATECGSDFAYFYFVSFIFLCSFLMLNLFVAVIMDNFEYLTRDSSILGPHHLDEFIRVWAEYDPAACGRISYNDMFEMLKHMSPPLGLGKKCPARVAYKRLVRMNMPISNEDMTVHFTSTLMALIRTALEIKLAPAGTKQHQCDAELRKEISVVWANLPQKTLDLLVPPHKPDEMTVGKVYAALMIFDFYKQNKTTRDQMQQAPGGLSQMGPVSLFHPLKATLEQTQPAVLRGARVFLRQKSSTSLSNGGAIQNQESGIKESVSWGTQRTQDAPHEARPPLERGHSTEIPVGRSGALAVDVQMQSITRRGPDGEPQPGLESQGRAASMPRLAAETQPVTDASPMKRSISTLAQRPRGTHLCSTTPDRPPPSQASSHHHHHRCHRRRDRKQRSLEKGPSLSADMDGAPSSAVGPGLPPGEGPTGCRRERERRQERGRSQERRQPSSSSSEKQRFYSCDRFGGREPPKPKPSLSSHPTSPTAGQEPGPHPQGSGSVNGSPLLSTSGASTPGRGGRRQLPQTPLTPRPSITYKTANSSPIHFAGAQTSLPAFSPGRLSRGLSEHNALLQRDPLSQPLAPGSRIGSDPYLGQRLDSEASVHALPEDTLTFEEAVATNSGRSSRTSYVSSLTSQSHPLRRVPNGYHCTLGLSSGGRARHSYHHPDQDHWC
T1 sequence (P54289 25-1103, further chain): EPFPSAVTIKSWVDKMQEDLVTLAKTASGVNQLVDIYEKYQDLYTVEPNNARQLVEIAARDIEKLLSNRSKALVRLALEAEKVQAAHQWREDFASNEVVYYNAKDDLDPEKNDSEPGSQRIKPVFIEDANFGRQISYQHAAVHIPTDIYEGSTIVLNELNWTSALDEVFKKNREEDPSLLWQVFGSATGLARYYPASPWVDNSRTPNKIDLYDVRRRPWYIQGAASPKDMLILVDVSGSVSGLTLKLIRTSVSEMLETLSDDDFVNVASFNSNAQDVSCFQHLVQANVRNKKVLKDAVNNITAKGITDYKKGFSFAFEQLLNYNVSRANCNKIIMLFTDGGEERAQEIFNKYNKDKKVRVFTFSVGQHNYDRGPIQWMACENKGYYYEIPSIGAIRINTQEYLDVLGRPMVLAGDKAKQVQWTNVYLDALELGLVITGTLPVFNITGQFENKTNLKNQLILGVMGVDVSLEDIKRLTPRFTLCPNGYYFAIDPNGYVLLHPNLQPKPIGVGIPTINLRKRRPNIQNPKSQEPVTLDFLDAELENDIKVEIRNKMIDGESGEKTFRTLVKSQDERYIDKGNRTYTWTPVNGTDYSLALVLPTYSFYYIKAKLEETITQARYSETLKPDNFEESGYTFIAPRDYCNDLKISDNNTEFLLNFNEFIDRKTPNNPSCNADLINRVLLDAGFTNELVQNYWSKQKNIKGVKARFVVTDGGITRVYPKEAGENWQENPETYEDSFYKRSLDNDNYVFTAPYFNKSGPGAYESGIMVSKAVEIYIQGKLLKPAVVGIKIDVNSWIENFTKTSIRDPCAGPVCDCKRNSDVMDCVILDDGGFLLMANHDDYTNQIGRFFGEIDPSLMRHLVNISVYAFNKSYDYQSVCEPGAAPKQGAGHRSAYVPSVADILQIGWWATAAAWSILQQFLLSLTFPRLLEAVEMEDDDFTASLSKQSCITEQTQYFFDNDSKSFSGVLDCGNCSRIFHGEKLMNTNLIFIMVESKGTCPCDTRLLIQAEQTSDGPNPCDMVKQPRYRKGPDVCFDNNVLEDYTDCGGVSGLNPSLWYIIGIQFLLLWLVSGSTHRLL
T1 sequence (P54284 whole entry, further chain): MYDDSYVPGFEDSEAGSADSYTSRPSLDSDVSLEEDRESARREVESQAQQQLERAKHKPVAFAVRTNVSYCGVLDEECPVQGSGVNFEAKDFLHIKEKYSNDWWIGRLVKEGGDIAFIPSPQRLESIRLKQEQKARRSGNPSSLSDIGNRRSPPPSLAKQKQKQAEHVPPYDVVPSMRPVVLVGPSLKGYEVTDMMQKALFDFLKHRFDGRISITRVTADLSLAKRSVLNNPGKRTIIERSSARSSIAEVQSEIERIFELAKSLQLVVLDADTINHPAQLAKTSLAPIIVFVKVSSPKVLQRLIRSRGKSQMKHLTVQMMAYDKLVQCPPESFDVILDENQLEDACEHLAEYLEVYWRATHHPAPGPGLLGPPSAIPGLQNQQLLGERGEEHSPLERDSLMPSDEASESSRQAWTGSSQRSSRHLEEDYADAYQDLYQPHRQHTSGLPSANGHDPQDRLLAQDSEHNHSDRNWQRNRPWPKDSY

Structure (SMILES) | inhibition at 3 µM [%]
Cc1c(-c2ccc(Cl)cc2)c(C(=O)N(C)CCS(=O)(=O)C(C)C)n(Cc2ccccc2)c1C(F)(F)F [SC-130, 1-Benzyl-3-(4-chlorophenyl)-N-[2-(isopropylsulfonyl)-ethyl]-N,4-dimethyl-5-(trifluoromethyl)-1H-pyrrole-2-carboxylic acid amide] | > 95
Cc1c(-c2ccc(Cl)cc2)c(C(=O)N(C)C2CCS(=O)(=O)CC2)n(Cc2ccccc2)c1C(F)(F)F [SC-131, 1-Benzyl-3-(4-chlorophenyl)-N-(1,1-dioxo-thian-4-yl)-N,4-dimethyl-5-(trifluoromethyl)-1H-pyrrole-2-carboxylic acid amide] | > 95
CCS(=O)(=O)CCN(C)C(=O)c1c(-c2ccc(Cl)cc2)c(C)c(C(F)(F)F)n1Cc1ccccc1 [SC-132, 1-Benzyl-3-(4-chlorophenyl)-N-[2-(ethylsulfonyl)-ethyl]-N,4-dimethyl-5-(trifluoromethyl)-1H-pyrrole-2-carboxylic acid amide] | > 95
Cc1c(-c2ccc(Cl)cc2)c(C(=O)N(C)CCC2CCCO2)n(Cc2ccccc2)c1C(F)(F)F (centres unmarked) [SC-133, 1-Benzyl-3-(4-chlorophenyl)-N,4-dimethyl-N-(2-tetrahydro-furan-2-yl-ethyl)-5-(trifluoromethyl)-1H-pyrrole-2-carboxylic acid amide] | > 95
Cc1c(-c2ccc(Cl)cc2)c(C(=O)N(C)CC2CCCO2)n(Cc2ccccc2)c1C(F)(F)F (centres unmarked) [SC-134, 1-Benzyl-3-(4-chlorophenyl)-N,4-dimethyl-N-(tetrahydro-furan-2-yl-methyl)-5-(trifluoromethyl)-1H-pyrrole-2-carboxylic acid amide] | > 95
Cc1c(-c2ccc(Cl)cc2)c(C(=O)N(C)CC2CCC[C@@H]2O)n(Cc2ccccc2)c1C(F)(F)F (stereo partly drawn) [SC-135, 1-Benzyl-3-(4-chlorophenyl)-N-[[(2S)-2-hydroxy-cyclopentyl]-methyl]-N,4-dimethyl-5-(trifluoromethyl)-1H-pyrrole-2-carboxylic acid amide] | > 95
Cc1c(-c2ccc(Cl)cc2)c(C(=O)N(C)CC2CCC[C@H]2O)n(Cc2ccccc2)c1C(F)(F)F (stereo partly drawn) [SC-136, 1-Benzyl-3-(4-chlorophenyl)-N-[[(2R)-2-hydroxy-cyclopentyl]-methyl]-N,4-dimethyl-5-(trifluoromethyl)-1H-pyrrole-2-carboxylic acid amide] | > 95
Cc1c(-c2ccc(Cl)cc2)c(C(=O)N2CC(S(C)(=O)=O)C2)n(Cc2ccccc2)c1C(F)(F)F [SC-137, [1-Benzyl-3-(4-chlorophenyl)-4-methyl-5-(trifluoromethyl)-1H-pyrrol-2-yl]-(3-methylsulfonyl-azetidin-1-yl)-methanone] | 75 to 95
Cc1c(-c2ccc(Cl)cc2)c(C(=O)N(C)CC2CCCCO2)n(Cc2ccccc2)c1C(F)(F)F (centres unmarked) [SC-138, 1-Benzyl-3-(4-chlorophenyl)-N,4-dimethyl-N-(tetrahydro-pyran-2-yl-methyl)-5-(trifluoromethyl)-1H-pyrrole-2-carboxylic acid amide] | 75 to 95
Cc1c(-c2ccc(Cl)cc2)c(C(=O)N(C)CC(C)(C)CN(C)CCN2CCCC2)n(Cc2ccccc2)c1C(F)(F)F [SC-139, 1-Benzyl-3-(4-chlorophenyl)-N-[2,2-dimethyl-3-[methyl-(2-pyrrolidin-1-yl-ethyl)-amino]-propyl]-N,4-dimethyl-5-(trifluoromethyl)-1H-pyrrole-2-carboxylic acid amide] | > 95
Cc1cc(CN(C)C(=O)c2c(-c3ccc(Cl)cc3)c(C)c(C(F)(F)F)n2Cc2ccccc2)on1 [SC-140, 1-Benzyl-3-(4-chlorophenyl)-N,4-dimethyl-N-[(3-methyl-isoxazol-5-yl)-methyl]-5-(trifluoromethyl)-1H-pyrrole-2-carboxylic acid amide] | > 95
Cc1c(-c2ccc(Cl)cc2)c(C(=O)N(C)C(C)CS(C)(=O)=O)n(Cc2ccccc2)c1C(F)(F)F (centres unmarked) [SC-141, 1-Benzyl-3-(4-chlorophenyl)-N,4-dimethyl-N-(1-methyl-2-methylsulfonyl-ethyl)-5-(trifluoromethyl)-1H-pyrrole-2-carboxylic acid amide] | > 95
Cc1cc(CN(C)C(=O)c2c(-c3ccc(Cl)cc3)c(C)c(C(F)(F)F)n2Cc2ccccc2)no1 [SC-142, 1-Benzyl-3-(4-chlorophenyl)-N,4-dimethyl-N-[(5-methyl-isoxazol-3-yl)-methyl]-5-(trifluoromethyl)-1H-pyrrole-2-carboxylic acid amide] | > 95
Cc1nnc(CN(C)C(=O)c2c(-c3ccc(Cl)cc3)c(C)c(C(F)(F)F)n2Cc2ccccc2)o1 [SC-143, 1-Benzyl-3-(4-chlorophenyl)-N,4-dimethyl-N-[(5-methyl-[1,3,4]oxadiazol-2-yl)-methyl]-5-(trifluoromethyl)-1H-pyrrole-2-carboxylic acid amide] | > 95
Cc1c(-c2ccc(Cl)cc2)c(C(=O)N(C)Cc2ccncn2)n(Cc2ccccc2)c1C(F)(F)F [SC-144, 1-Benzyl-3-(4-chlorophenyl)-N,4-dimethyl-N-(pyrimidin-4-yl-methyl)-5-(trifluoromethyl)-1H-pyrrole-2-carboxylic acid amide] | > 95
COC1CCN(C(=O)c2c(-c3ccc(Cl)cc3)c(C)c(C(F)(F)F)n2Cc2ccccc2)CC1 [SC-145, [1-Benzyl-3-(4-chlorophenyl)-4-methyl-5-(trifluoromethyl)-1H-pyrrol-2-yl]-(4-methoxy-piperidin-1-yl)-methanone] | > 95
Cc1c(-c2ccc(Cl)cc2)c(C(=O)N(C)Cc2cnccn2)n(Cc2ccccc2)c1C(F)(F)F [SC-146, 1-Benzyl-3-(4-chlorophenyl)-N,4-dimethyl-N-(pyrazin-2-yl-methyl)-5-(trifluoromethyl)-1H-pyrrole-2-carboxylic acid amide] | 75 to 95
Cc1c(-c2ccc(Cl)cc2)c(C(=O)N(C)Cc2ccnc(N(C)C)n2)n(Cc2ccccc2)c1C(F)(F)F [SC-147, 1-Benzyl-3-(4-chlorophenyl)-N-[(2-dimethylamino-pyrimidin-4-yl)-methyl]-N,4-dimethyl-5-(trifluoromethyl)-1H-pyrrole-2-carboxylic acid amide] | 75 to 95
Cc1c(-c2ccc(Cl)cc2)c(C(=O)N(C)Cc2nccn2C)n(Cc2ccccc2)c1C(F)(F)F [SC-148, 1-Benzyl-3-(4-chlorophenyl)-N,4-dimethyl-N-[(1-methyl-1H-imidazol-2-yl)-methyl]-5-(trifluoromethyl)-1H-pyrrole-2-carboxylic acid amide] | > 95
Cc1c(-c2ccc(Cl)cc2)c(C(=O)N(C)C(C)C)n(Cc2ccccc2)c1C(F)(F)F [SC-149, 1-Benzyl-3-(4-chlorophenyl)-N-isopropyl-N,4-dimethyl-5-(trifluoromethyl)-1H-pyrrole-2-carboxylic acid amide] | > 95
Cc1c(-c2ccc(Cl)cc2)c(C(=O)NC(C)C)n(Cc2ccccc2)c1C(F)(F)F [SC-150, 1-Benzyl-3-(4-chlorophenyl)-N-isopropyl-4-methyl-5-(trifluoromethyl)-1H-pyrrole-2-carboxylic acid amide] | 75 to 95
Cc1cnc(CN(C)C(=O)c2c(-c3ccc(Cl)cc3)c(C)c(C(F)(F)F)n2Cc2ccccc2)cn1 [SC-151, 1-Benzyl-3-(4-chlorophenyl)-N,4-dimethyl-N-[(5-methyl-pyrazin-2-yl)-methyl]-5-(trifluoromethyl)-1H-pyrrole-2-carboxylic acid amide] | > 95
Cc1c(-c2ccc(Cl)cc2)c(C(=O)N(C)Cc2cnc(N(C)C)nc2)n(Cc2ccccc2)c1C(F)(F)F [SC-152, 1-Benzyl-3-(4-chlorophenyl)-N-[(2-dimethylamino-pyrimidin-5-yl)-methyl]-N,4-dimethyl-5-(trifluoromethyl)-1H-pyrrole-2-carboxylic acid amide] | > 95
Cc1c(-c2ccc(Cl)cc2F)c(C(=O)N2CC(O)C2)n(Cc2ccccc2)c1C(F)(F)F [SC-154, [1-Benzyl-3-(4-chloro-2-fluoro-phenyl)-4-methyl-5-(trifluoromethyl)-1H-pyrrol-2-yl]-(3-hydroxy-azetidin-1-yl)-methanone] | 75 to 95
Cc1c(-c2ccc(Cl)cc2F)c(C(=O)N2CCOC(C)(C)C2)n(Cc2ccccc2)c1C(F)(F)F [SC-155, [1-Benzyl-3-(4-chloro-2-fluoro-phenyl)-4-methyl-5-(trifluoromethyl)-1H-pyrrol-2-yl]-(2,2-dimethyl-morpholin-4-yl)-methanone] | > 95
Cc1c(-c2ccc(Cl)cc2F)c(C(=O)N(C)C2CCOCC2)n(Cc2ccccc2)c1C(F)(F)F [SC-156, 1-Benzyl-3-(4-chloro-2-fluoro-phenyl)-N,4-dimethyl-N-tetrahydro-pyran-4-yl-5-(trifluoromethyl)-1H-pyrrole-2-carboxylic acid amide] | > 95
Cc1c(-c2ccc(Cl)cc2F)c(C(=O)N[C@H](C)C(C)(C)C)n(Cc2ccccc2)c1C(F)(F)F [SC-158, 1-Benzyl-3-(4-chloro-2-fluoro-phenyl)-4-methyl-5-(trifluoromethyl)-N-[(1R)-1,2,2-trimethyl-propyl]-1H-pyrrole-2-carboxylic acid amide] | 75 to 95
Cc1c(-c2ccc(Cl)cc2F)c(C(=O)N(C)C2CC2)n(Cc2ccccc2)c1C(F)(F)F [SC-159, 1-Benzyl-3-(4-chloro-2-fluoro-phenyl)-N-cyclopropyl-N,4-dimethyl-5-(trifluoromethyl)-1H-pyrrole-2-carboxylic acid amide] | > 95
Cc1c(-c2ccc(Cl)cc2F)c(C(=O)N(C)C2CCS(=O)(=O)CC2)n(Cc2ccccc2)c1C(F)(F)F [SC-160, 1-Benzyl-3-(4-chloro-2-fluoro-phenyl)-N-(1,1-dioxo-thian-4-yl)-N,4-dimethyl-5-(trifluoromethyl)-1H-pyrrole-2-carboxylic acid amide] | > 95
